Assay results as given in EP4474016A1, “STRATEGIES TO TARGET EXTRACELLULARLY ACCESSIBLE RAS PROTEIN” (Julius-Maximilians-Universität Würzburg, priority 2023, dated 2024).

Columns and labels:
[1] = test system: human acute monocytic leukemia cell line MV4-11; assay: in vitro killing assay of anti-Ras bispecific antibody alone or in combination with DMSO (luciferase read-out); format: cell-based; conditions: alone, read-out: viability drop of MV4-11 cells
Protocol: (§1) The anti-Ras bispecific antibody constructs SFV02_PCC06 (SEQ ID No 75 + 76) was tested in cell culture against the human Multiple Myeloma cell lines MM.1S and the human acute monocytic leukemia cell line MV4-11. The MM. 1S and MV4-11 cells are luziferase positive and were seeded into 96-well cell culture plates (for each cell line 7500 cells in 50 µL per well in 150 µL medium) in the corresponding medium (Table 1) and incubated at 37°C and 5% CO2 for 24 hours. The next day, fresh human CD3+/CD8+ T-cells were added to each well, for a final tumour cell to T cells ratio of 1 to 5. Two dilution series were prepared of the SFV02_PCC06 antibody: (i) A final concentration of 25 nM, 12.5 nM, 6.25 nM and 3.125 nM (Figure 15), and (ii) a final concentration of 15 nM, 7.5 nM, 3.75 nM, 1.87 nM, 0.93 nM, 0.46 nM, 0.23 nM and 0.11 nM (Figure 16). From the antibody dilution series, 20 µL was added to each respective well.
(§2) To test if chemical compounds can improve and/or increase the bi-specific anti Ras antibody directed killing of tumours cells, two compounds were tested. […] Afterwards, the bioluminescence of the firefly-luciferase was measured, using a Tecan Spark plate reader (with an absorbance scan from 350 nm to 700 nm with an integration time interval of 1000 ms).

[2] = test system: aberrant expressed Ras on the cell surface; assay: cell-based ELISA of aberrant Ras protein on the cell surface under normal and stress conditions; set-up: species or system human; conditions: versus complete medium; for aberrant Ras expression on the cell surface: Lenalidomide 1.5µM overnight
Protocol: For the cell-based ELISA, different adherent cell lines (AsPC-1, Panc-1, SK-BR-3 and BT-474) were used. First, the cell culture medium was removed, and the cells were washed one time with PBS. After washing, 2 ml of […] Trypsin-EDTA (Gibco, #25300054) was added to trypsinise the cells for 3 min at 37°C. Then, 13 ml of complete medium (Table 1) was added to stop the trypsinisation process. Cell numbers were count via Trypan Blue staining and 30.000 viable cells in 50 µl were seeded out per well, in a 96-well tissue culture plate at 37°C and 5% CO2. After overnight adhesion of the cells, three different mechanisms to induce cellular stress on the tumour cells were tested: (i) addition of 0,5% DMSO in the cell culture medium, (ii) adding 1,5 µM Lenalidomide in the cell culture medium, (iii) or replacement of the complete medium by cell culture medium without supplemented FBS for serum-starvation. As normal control, for cells not under additional cellular stress, cells were left in complete medium. The stress-induction was performed overnight at 37°C and 5% CO2. The next day, to reduce unspecific binding of detection antibody to the plastic of the cell culture plate, each well was filled up to the top with 50% FBS in PBS, carefully pipette on top of the incubation medium, and incubated for 30 minutes at 37°C. Then, the all medium was discarded from the wells and 50 µl of 1:100-diluted FcR Blocking Reagent (MACS Miltenyi #130-059-901) was added to each well to avoid unspecific binding by blocking of the Fc-Receptors on the tumour cells. […]
The HRP-reaction was stopped after sufficient colour development by adding 50 µl of stop solution (1 N Sulfuric Acid) to each well. Finally, the absorbance was measured in each well at a wavelength of 450 nm and a reference wavelength of 630 nm with a Tecan SPARK® multimode-mikroplate-reader. The absorbance values from the unspecific HRP-labelled control samples (samples without primary antibody but with corresponding HRP labelled secondary antibody), were used for the zero baseline model and set at 0 (Figure 19 and 20).

[3] = test system: human Multiple Myeloma cell lines MM.1S; assay: in vitro killing assay of anti-Ras bispecific antibody alone or in combination with Lenalidomide (luciferase read-out); format: cell-based; conditions: MM1.S, Lenalidomide 1.5 µM alone, compared to the cells without Lenalidomide
Protocol: as §1, §2

C[S+](C)[O-] [DMSO, Dimethyl Sulfoxide]
viability drop at 70.4 µM [1]: 30% | aberrant Ras protein on the cell surface ([2]; the four solid tumour cells (AsPC-1, Panc-1, MS-18, SK-BR-3), DMSO 0.5% (v/v)): down-regulating

Nc1cccc2c1CN(C1CCC(=O)NC1=O)C2=O (centres unmarked) [Lenalidomide]
percent drop in cell viability at 1.5 µM [3]: 25% | aberrant Ras expression on the cell surface ([2]; AsPc-1 cells): up-regulating | aberrant Ras expression on the cell surface ([2]; SK-BR-3 cells): up-regulating
